In ChEMBL document CHEMBL5316347, “Design, Synthesis, and Biological Evaluation of Bipyridazine Derivatives as Stimulator of Interferon Genes (STING) Receptor Agonists” (J Med Chem, 2023):
Values belong to the compound of their own block, whether it stands above or below them. Activity calls are given as the source filed them. No cut-off for these calls is given here.

Legend:
[1] = biological target: T1, Stimulator of interferon genes protein (Mus musculus, UniProt Q3TBT3); experiment: Agonist activity at mouse 6His-tagged recombinant STING CTD (144 to 378 residues) expressed in Escherichia coli BL21 (DE3) incubated for 10 mins by FRET assay
T1 sequence (Q3TBT3 whole entry): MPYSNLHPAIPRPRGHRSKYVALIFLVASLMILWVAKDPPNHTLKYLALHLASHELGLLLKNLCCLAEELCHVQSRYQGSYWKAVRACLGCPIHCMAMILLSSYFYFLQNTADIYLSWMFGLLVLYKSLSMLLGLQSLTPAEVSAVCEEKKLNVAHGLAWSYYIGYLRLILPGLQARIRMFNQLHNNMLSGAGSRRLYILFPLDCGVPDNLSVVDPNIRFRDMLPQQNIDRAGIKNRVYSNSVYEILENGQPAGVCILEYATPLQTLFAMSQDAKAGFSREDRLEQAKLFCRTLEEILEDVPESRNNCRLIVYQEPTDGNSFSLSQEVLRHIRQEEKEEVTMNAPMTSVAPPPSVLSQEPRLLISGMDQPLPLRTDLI

[2] = biological target: T1, Stimulator of interferon genes protein; experiment: Agonist activity at mouse STING in mouse RAW-Lucia ISG cells incubated for 24 hrs in presence of PMA by luciferase reporter assay; assay type: cell-based
[3] = biological target: T1, Stimulator of interferon genes protein; experiment: Agonist activity at mouse STING in STING knockout mouse RAW-Lucia ISG cells incubated for 24 hrs in presence of PMA by luciferase reporter assay; assay type: cell-based
THP-1 = experiment: Cytotoxicity against human THP-1 cells assessed as inhibition of cell growth upto 40 uM measured after 24 hrs in presence of PMA by CellTiter-Glo viability assay; assay type: toxicity, cell-based; settings: thp-1, 24 h
[4] = biological target: T2, Stimulator of interferon genes protein (Homo sapiens, UniProt Q86WV6); experiment: Agonist activity at human STING in human THP1-Blue ISG cells incubated for 24 hrs in presence of PMA by luciferase reporter assay; assay type: cell-based
T2 sequence (Q86WV6 whole entry): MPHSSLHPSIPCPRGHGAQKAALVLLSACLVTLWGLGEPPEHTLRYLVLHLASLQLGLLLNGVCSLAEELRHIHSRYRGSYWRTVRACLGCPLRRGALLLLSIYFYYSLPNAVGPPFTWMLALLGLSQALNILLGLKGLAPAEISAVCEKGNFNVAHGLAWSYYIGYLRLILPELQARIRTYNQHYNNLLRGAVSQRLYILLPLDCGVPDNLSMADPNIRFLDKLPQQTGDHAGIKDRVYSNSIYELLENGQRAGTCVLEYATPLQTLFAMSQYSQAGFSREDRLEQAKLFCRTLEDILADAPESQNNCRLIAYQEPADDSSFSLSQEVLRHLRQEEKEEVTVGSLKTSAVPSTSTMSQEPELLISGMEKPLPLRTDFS

[5] = tested on: Stimulator of interferon genes protein (Homo sapiens), Q86WV6 [UNDEFINED MUTATION]; settings: dose 50.0 µM
Stimulator of interferon genes protein (Homo sapiens), Q86WV6 [UNDEFINED MUTATION], sequence (Q86WV6 whole entry, looked up, change not shown): as the sequence (Q86WV6 whole entry) above

[6] = Half life in C57BL/6 mouse at 10 mg/kg, iv qd measured upto 24 hrs by LC-MS/MS analysis; assay type: ADME, organism-based; settings: in vivo
[7] = AUC(0 to t) in C57BL/6 mouse at 10 mg/kg, iv qd measured upto 24 hrs by LC-MS/MS analysis; assay type: ADME, organism-based; parameters: dose 10 mg/kg, time < 24 hrs, route iv; settings: in vivo
[8] = AUC(0 to infinity) in C57BL/6 mouse at 10 mg/kg, iv qd measured upto 24 hrs by LC-MS/MS analysis; assay type: ADME, organism-based; parameters: time < 24 hrs, dose 10 mg/kg, route iv; settings: in vivo
[9] = Clearance in C57BL/6 mouse at 10 mg/kg, iv qd measured upto 24 hrs by LC-MS/MS analysis; assay type: ADME, organism-based; settings: in vivo
[10] = MRT(0 to infinity) in C57BL/6 mouse at 10 mg/kg, iv qd measured upto 24 hrs by LC-MS/MS analysis; assay type: ADME, organism-based; settings: in vivo
[11] = Volume of distribution at steady state in C57BL/6 mouse at 10 mg/kg, iv qd measured upto 24 hrs by LC-MS/MS analysis; assay type: ADME, organism-based; settings: in vivo, read-out: Vdss
[12] = Toxicity in C57BL/6 mouse implanted with mouse B16-F10 cells assessed as body weight loss at 10 mg/kg, […] measured for 14 days; assay type: organism-based; settings: in vivo, 336 h, time 14 day
[13] = biological target: T3, Stimulator of interferon genes protein (Mus musculus) (UniProt Q3TBT3); experiment: Binding affinity to mouse 6His-tagged recombinant STING CTD (144 to 378 residues) expressed in Escherichia coli BL21 (DE3) assessed as thermal stability at 50 uM by measuring change in melting temperature by SYPRO orange dye based analysis; settings: filed as agonist
T3 sequence (whole entry): T1 sequence (Q3TBT3 whole entry)

B16-F10 [14] = experiment: Antitumor activity against mouse B16-F10 cells implanted in C57BL/6 mouse assessed tumor growth inhibition at 10 mg/kg, ip qd measured for 14 days; assay type: functional, organism-based; settings: time 14.0 day
B16-F10 [15] = experiment: Antitumor activity against mouse B16-F10 cells implanted in C57BL/6 mouse assessed tumor growth inhibition at 30 mg/kg, ip qd measured for 14 days; assay type: functional, organism-based; settings: time 14.0 day
[16] = biological target: T2, Stimulator of interferon genes protein; experiment: Agonist activity at human STING in STING knockout human THP1-Blue ISG cells incubated for 24 hrs in presence of PMA by luciferase reporter assay; assay type: cell-based

IC50 [1]: 0.93 µM
EC50 [2]: 35.3 µM
EC50 [3]: > 200 µM
Structure (SMILES): O=C(Nc1cc(Cl)c(F)cc1C(=O)O)c1ccc(-c2ccnnc2)nn1
Activity (THP-1): Non-Toxic

IC50 [1]: 4.35 µM
EC50 [2]: 5.22 µM
EC50 [3]: > 200 µM
half-life [6]: 1.13 h
AUC(0-t) at 24 h [7]: 3820 ng·h/mL
AUC(0-inf) [8]: 3830 ng·h/mL
clearance [9]: 43.8 mL/min/kg
MRT inf [10]: 0.894 h
Vd [11]: 2.38 L/kg
Structure (SMILES): CCCn1c(NC(=O)c2cc(C)nn2CC)nc2cc(C(N)=O)cc(OC3COC3)c21
Activity (THP-1): Toxic

IC50 [1]: 0.96 µM
EC50 [2]: 12.9 µM
EC50 [3]: > 200 µM
half-life [6]: 2.1 h
AUC(0-t) at 24 h [7]: 4390 ng·h/mL
AUC(0-inf) [8]: 4410 ng·h/mL
clearance [9]: 37.8 mL/min/kg
MRT inf [10]: 1.06 h
Vd [11]: 2.39 L/kg
Structure (SMILES): C#Cc1cc(NC(=O)c2ccc(-c3ccnnc3)nn2)c(C(=O)O)cc1F
Activity (THP-1): Non-Toxic
Activity [12]: Non-Toxic

EC50 [4]: 22.8 µM
ΔTm [5]: 0 °C
Structure (SMILES): Cc1cncn1-c1ccc(C(=O)Nc2cc(F)c(F)cc2C(=O)O)nn1

IC50 [1]: 1.6 µM
ΔTm [13]: 9 °C
EC50 [3]: > 200 µM
half-life [6]: 1.82 h
AUC(0-t) at 24 h [7]: 1360 ng·h/mL
AUC(0-inf) [8]: 1370 ng·h/mL
clearance [9]: 123 mL/min/kg
MRT inf [10]: 0.495 h
Vd [11]: 3.62 L/kg
Structure (SMILES): O=C(Nc1cc(F)c(F)cc1C(=O)O)c1ccc(-n2ccnc2)nn1
inhibition (B16-F10 [14]): inactive
inhibition (B16-F10 [15]): Active

EC50 [4]: > 100 µM
ΔTm [5]: 0 °C
Structure (SMILES): COc1ccc(NC(=O)c2ccc(-c3ccnnc3)nn2)c(C(=O)O)c1

EC50 [4]: 32.3 µM
ΔTm [5]: 0 °C
Structure (SMILES): O=C(Nc1cc(F)c(F)cc1C(=O)O)c1ccc(-c2cncnc2)nn1

EC50 [4]: 33.6 µM
ΔTm ([5]; filed as agonist): 0.5 °C
Structure (SMILES): O=C(Nc1cc(F)c(F)cc1C(=O)O)c1ccc(-n2cccc2)nn1

EC50 [4]: 22.3 µM
ΔTm ([5]; filed as agonist): 1 °C
Structure (SMILES): O=C(Nc1cc(F)c(F)cc1C(=O)O)c1ccc(Nc2cn[nH]c2)nn1

EC50 [4]: > 100 µM
ΔTm ([5]; filed as agonist): -1 °C
Structure (SMILES): O=C(Nc1cc(F)c(F)cc1C(=O)O)c1ccc(N2CCCC2)nn1

EC50 [4]: 38 µM
ΔTm [5]: 0 °C
Structure (SMILES): O=C(Nc1cc(F)c(F)cc1C(=O)O)c1ccc(-c2ccoc2)nn1

EC50 [4]: > 100 µM
ΔTm [5]: 0 °C
Structure (SMILES): O=C(Nc1cc(F)c(F)cc1C(=O)O)c1ccc(N2CCOCC2)nn1

EC50 [4]: 11.5 µM
ΔTm ([5]; filed as agonist): 1.5 °C
Structure (SMILES): O=C(Nc1cc(F)c(F)cc1C(=O)O)c1ccc(-n2cncn2)nn1

EC50 [4]: 17.6 µM
ΔTm ([5]; filed as agonist): 3.5 °C
Structure (SMILES): O=C(Nc1cc(F)c(F)cc1C(=O)O)c1ccc(-c2cnsc2)nn1

EC50 [4]: > 100 µM
ΔTm [5]: 0 °C
Structure (SMILES): O=C(Nc1cc(C(F)(F)F)ccc1C(=O)O)c1ccc(-c2ccnnc2)nn1

The next lines start with the compound.

Structure (SMILES): COc1ccc(C(=O)O)c(NC(=O)c2ccc(-c3ccnnc3)nn2)c1
EC50 [4]: 5.96 µM
ΔTm ([5]; filed as agonist): 1.5 °C

Structure (SMILES): O=C(Nc1cc(Br)c(F)cc1C(=O)O)c1ccc(-c2ccnnc2)nn1
IC50 [1]: 1.9 µM
EC50 [2]: 42 µM
EC50 [3]: > 200 µM
Activity (THP-1): Non-Toxic

Structure (SMILES): Cn1cc(-c2ccc(C(=O)Nc3cc(F)c(F)cc3C(=O)O)nn2)cn1
EC50 [4]: 20.6 µM
ΔTm ([5]; filed as agonist): 0 °C

Structure (SMILES): N#Cc1ccn(-c2ccc(C(=O)Nc3cc(F)c(F)cc3C(=O)O)nn2)c1
EC50 [4]: 10.5 µM
ΔTm ([5]; filed as agonist): 3.5 °C

Structure (SMILES): O=C(Nc1ccccc1C(=O)O)c1ccc(-c2ccnnc2)nn1
EC50 [4]: > 100 µM
ΔTm ([5]; filed as agonist): 0.5 °C

Structure (SMILES): O=C(Nc1ccc(C(F)(F)F)cc1C(=O)O)c1ccc(-c2ccnnc2)nn1
EC50 [4]: 1940 µM
ΔTm ([5]; filed as agonist): 3.5 °C

Structure (SMILES): O=C(Nc1cc(F)c(F)cc1C(=O)O)c1ccc(-c2cccnc2)nn1
EC50 [4]: 32.7 µM
ΔTm [5]: 0 °C

Structure (SMILES): O=C(Nc1cc(F)c(F)cc1C(=O)O)c1ccc(-c2ccnnc2)nn1
EC50 [4]: 17.9 µM
ΔTm ([5]; filed as agonist): 6 °C

Structure (SMILES): CC(=O)c1ccn(-c2ccc(C(=O)Nc3cc(F)c(F)cc3C(=O)O)nn2)c1
EC50 [4]: 29.9 µM
ΔTm [5]: 0 °C

Structure (SMILES): O=C(Nc1ccc(Br)cc1C(=O)O)c1ccc(-c2ccnnc2)nn1
EC50 [4]: 4.5 µM
ΔTm ([5]; filed as agonist): 3.5 °C

Structure (SMILES): O=C(Nc1cc(Br)ccc1C(=O)O)c1ccc(-c2ccnnc2)nn1
EC50 [2]: > 200 µM
EC50 [3]: > 200 µM
Activity (THP-1): Non-Toxic

Structure (SMILES): COc1cc(NC(=O)c2ccc(-c3ccnnc3)nn2)c(C(=O)O)cc1OC
EC50 [4]: 21.3 µM
ΔTm ([5]; filed as agonist): 0.5 °C

Structure (SMILES): COc1cc2cc(C(=O)CCC(=O)O)sc2cc1OC
EC50 [4]: 3.51 µM
EC50 [2]: 34.5 µM
EC50 [16]: > 100 µM
EC50 [3]: > 200 µM
